Laboratory results as given in ChEMBL document CHEMBL3400015, “Tertiary amides of Salinomycin: A new group of antibacterial agents against Bacillus anthracis and methicillin-resistant Staphylococcus epidermidis” (Bioorg Med Chem Lett, 2015).

Key:
[1] = system: Staphylococcus epidermidis; experiment: Bactericidal activity against Staphylococcus epidermidis ATCC 12228 after 24 hrs; assay type: functional; conditions: ATCC 12228, 24 h, read-out: MBC99.9
[2] = system: Staphylococcus epidermidis; experiment: Bactericidal activity against methicillin-resistant Staphylococcus epidermidis isolate 455/11 after 24 hrs; assay type: functional; conditions: isolate 455/11, 24 h, read-out: MBC99.9
[3] = system: Staphylococcus epidermidis; experiment: Bactericidal activity against methicillin-resistant Staphylococcus epidermidis isolate 404/10 after 24 hrs; assay type: functional; conditions: isolate 404/10, 24 h, read-out: MBC99.9
[4] = system: Staphylococcus epidermidis; experiment: Antimicrobial activity against methicillin-resistant Staphylococcus epidermidis isolate 404/10 after 18 hrs by twofold serial broth dilution method; assay type: functional; conditions: isolate 404/10, 18 h
[5] = system: Escherichia coli; experiment: Antimicrobial activity against Escherichia coli ATCC 25922 after 18 hrs by twofold serial broth dilution method; assay type: functional; conditions: ATCC 25922, 18 h
[6] = system: Staphylococcus epidermidis; experiment: Bactericidal activity against methicillin-resistant Staphylococcus epidermidis isolate 409/10 after 24 hrs; assay type: functional; conditions: isolate 409/10, 24 h, read-out: MBC99.9
[7] = system: Staphylococcus aureus; experiment: Antimicrobial activity against Staphylococcus aureus NCTC 4163 after 18 hrs by twofold serial broth dilution method; assay type: functional; conditions: NCTC 4163, 18 h
[8] = system: Staphylococcus epidermidis; experiment: Bactericidal activity against methicillin-resistant Staphylococcus epidermidis isolate 454/11 after 24 hrs; assay type: functional; conditions: isolate 454/11, 24 h, read-out: MBC99.9
[9] = system: Staphylococcus epidermidis; experiment: Antimicrobial activity against methicillin-resistant Staphylococcus epidermidis isolate 403/10 after 18 hrs by twofold serial broth dilution method; assay type: functional; conditions: isolate 403/10, 18 h
[10] = system: Staphylococcus epidermidis; experiment: Bactericidal activity against methicillin-resistant Staphylococcus epidermidis isolate 457/11 after 24 hrs; assay type: functional; conditions: isolate 457/11, 24 h, read-out: MBC99.9
[11] = system: Staphylococcus epidermidis; experiment: Bactericidal activity against methicillin-resistant Staphylococcus epidermidis isolate 460/11 after 24 hrs; assay type: functional; conditions: isolate 460/11, 24 h, read-out: MBC99.9
[12] = system: Staphylococcus epidermidis; experiment: Bactericidal activity against methicillin-resistant Staphylococcus epidermidis isolate 424/10 after 24 hrs; assay type: functional; conditions: isolate 424/10, 24 h, read-out: MBC99.9
[13] = system: Staphylococcus aureus; experiment: Bactericidal activity against Staphylococcus aureus ATCC 25923 after 24 hrs; assay type: functional; conditions: ATCC 25923, 24 h, read-out: MBC99.9
[14] = system: Staphylococcus epidermidis; experiment: Bactericidal activity against methicillin-resistant Staphylococcus epidermidis isolate 405/10 after 24 hrs; assay type: functional; conditions: isolate 405/10, 24 h, read-out: MBC99.9
[15] = system: Staphylococcus epidermidis; experiment: Antimicrobial activity against methicillin-resistant Staphylococcus epidermidis isolate 407/10 after 18 hrs by twofold serial broth dilution method; assay type: functional; conditions: isolate 407/10, 18 h
[16] = system: Staphylococcus aureus; experiment: Bactericidal activity against Staphylococcus aureus NCTC 4163 after 24 hrs; assay type: functional; conditions: NCTC 4163, 24 h, read-out: MBC99.9
[17] = system: Staphylococcus aureus; experiment: Bactericidal activity against Staphylococcus aureus […] after 24 hrs; assay type: functional; conditions: read-out: MBC99.9
[18] = system: Escherichia coli; experiment: Bactericidal activity against Escherichia coli NCTC 8196 after 24 hrs; assay type: functional; conditions: NCTC 8196, 24 h, read-out: MBC99.9
[19] = system: Staphylococcus epidermidis; experiment: Antimicrobial activity against methicillin-resistant Staphylococcus epidermidis isolate 409/10 after 18 hrs by twofold serial broth dilution method; assay type: functional; conditions: isolate 409/10, 18 h
[20] = system: Staphylococcus epidermidis; experiment: Antimicrobial activity against methicillin-resistant Staphylococcus epidermidis isolate 458/11 after 18 hrs by twofold serial broth dilution method; assay type: functional; conditions: isolate 458/11, 18 h
[21] = system: Staphylococcus epidermidis; experiment: Bactericidal activity against methicillin-resistant Staphylococcus epidermidis isolate 407/10 after 24 hrs; assay type: functional; conditions: isolate 407/10, 24 h, read-out: MBC99.9
[22] = system: Pseudomonas aeruginosa; experiment: Bactericidal activity against Pseudomonas aeruginosa NCTC 6749 after 24 hrs; assay type: functional; conditions: NCTC 6749, 24 h, read-out: MBC99.9
[23] = system: Staphylococcus epidermidis; experiment: Bactericidal activity against methicillin-resistant Staphylococcus epidermidis isolate 422/10 after 24 hrs; assay type: functional; conditions: isolate 422/10, 24 h, read-out: MBC99.9
[24] = system: Bacillus anthracis; experiment: Antimicrobial activity against Bacillus anthracis 34F2 after 18 hrs by twofold serial broth dilution method; assay type: functional; conditions: 34F2, 18 h
[25] = system: Staphylococcus epidermidis; experiment: Antimicrobial activity against methicillin-resistant Staphylococcus epidermidis isolate 461/11 after 18 hrs by twofold serial broth dilution method; assay type: functional; conditions: isolate 461/11, 18 h
[26] = system: Pseudomonas aeruginosa; experiment: Antimicrobial activity against Pseudomonas aeruginosa ATCC 15442 after 18 hrs by twofold serial broth dilution method; assay type: functional; conditions: ATCC 15442, 18 h
[27] = system: Staphylococcus epidermidis; experiment: Antimicrobial activity against methicillin-resistant Staphylococcus epidermidis isolate 459/11 after 18 hrs by twofold serial broth dilution method; assay type: functional; conditions: isolate 459/11, 18 h
[28] = system: Staphylococcus epidermidis; experiment: Antimicrobial activity against methicillin-resistant Staphylococcus epidermidis isolate 469/11 after 18 hrs by twofold serial broth dilution method; assay type: functional; conditions: isolate 469/11, 18 h
[29] = system: Staphylococcus epidermidis; experiment: Antimicrobial activity against methicillin-resistant Staphylococcus epidermidis isolate 470/11 after 18 hrs by twofold serial broth dilution method; assay type: functional; conditions: isolate 470/11, 18 h
[30] = system: Bacillus subtilis; experiment: Genotoxicity in rec-positive Bacillus subtilis H17 at 2 ug/9 mm disc after 24 hrs by disc diffusion method; assay type: toxicity, organism-based
[31] = system: Staphylococcus epidermidis; experiment: Bactericidal activity against methicillin-resistant Staphylococcus epidermidis isolate 403/10 after 24 hrs; assay type: functional; conditions: isolate 403/10, 24 h, read-out: MBC99.9
[32] = system: Escherichia coli; experiment: Bactericidal activity against Escherichia coli ATCC 10538 after 24 hrs; assay type: functional; conditions: ATCC 10538, 24 h, read-out: MBC99.9
[33] = system: Escherichia coli; experiment: Bactericidal activity against Escherichia coli ATCC 25922 after 24 hrs; assay type: functional; conditions: ATCC 25922, 24 h, read-out: MBC99.9
[34] = system: Staphylococcus epidermidis; experiment: Antimicrobial activity against methicillin-resistant Staphylococcus epidermidis isolate 460/11 after 18 hrs by twofold serial broth dilution method; assay type: functional; conditions: isolate 460/11, 18 h
[35] = system: Escherichia coli; experiment: Antimicrobial activity against Escherichia coli ATCC 10538 after 18 hrs by twofold serial broth dilution method; assay type: functional; conditions: ATCC 10538, 18 h
[36] = system: Bacillus subtilis; experiment: Genotoxicity in rec-negative Bacillus subtilis M45 at 2 ug/9 mm disc after 24 hrs by disc diffusion method; assay type: toxicity, organism-based
[37] = system: Staphylococcus epidermidis; experiment: Bactericidal activity against methicillin-resistant Staphylococcus epidermidis isolate 461/11 after 24 hrs; assay type: functional; conditions: isolate 461/11, 24 h, read-out: MBC99.9
[38] = system: Staphylococcus aureus; experiment: Bactericidal activity against Staphylococcus aureus ATCC 6538 after 24 hrs; assay type: functional; conditions: ATCC 6538, 24 h, read-out: MBC99.9
[39] = system: Pseudomonas aeruginosa; experiment: Antimicrobial activity against Pseudomonas aeruginosa ATCC 27853 after 18 hrs by twofold serial broth dilution method; assay type: functional; conditions: ATCC 27853, 18 h
[40] = system: Staphylococcus epidermidis; experiment: Antimicrobial activity against Staphylococcus epidermidis ATCC 12228 after 18 hrs by twofold serial broth dilution method; assay type: functional; conditions: ATCC 12228, 18 h
[41] = system: Staphylococcus epidermidis; experiment: Antimicrobial activity against Staphylococcus epidermidis ATCC 35984 after 18 hrs by twofold serial broth dilution method; assay type: functional; conditions: ATCC 35984, 18 h
[42] = system: Staphylococcus epidermidis; experiment: Bactericidal activity against methicillin-resistant Staphylococcus epidermidis isolate 459/11 after 24 hrs; assay type: functional; conditions: isolate 459/11, 24 h, read-out: MBC99.9
[43] = system: Pseudomonas aeruginosa; experiment: Bactericidal activity against Pseudomonas aeruginosa ATCC 27853 after 24 hrs; assay type: functional; conditions: ATCC 27853, 24 h, read-out: MBC99.9

CC[C@@H](C(=O)[C@@H](C)[C@@H](O)[C@H](C)[C@@H]1O[C@@H]([C@@H](CC)C(=O)N2CCNCC2)CC[C@@H]1C)[C@H]1O[C@]2(C=C[C@@H](O)[C@]3(CC[C@@](C)([C@H]4CC[C@](O)(CC)[C@H](C)O4)O3)O2)[C@H](C)C[C@@H]1C
64 µg/mL: MIC [4] | MIC [24] | MIC [27]
> 256 µg/mL: MBC [1] | MBC [2] | MIC [5] | MBC [6] | MBC [8] | MBC [10] | MBC [11] | MBC [12] | MBC [13] | MBC [14] | MBC [16] | MBC [17] | MBC [18] | MBC [21] | MBC [22] | MBC [23] | MIC [26] | MBC [31] | MBC [32] | MBC [33] | MIC [35] | MBC [37] | MBC [38] | MIC [39] | MBC [42] | MBC [43]
14 mm: diameter of the inhibition zone (DIZ) [30] | diameter of the inhibition zone (DIZ) [36]
256 µg/mL: MBC [3] | MIC [25] | MIC [29]
128 µg/mL: MIC [7] | MIC [9] | MIC [15] | MIC [19] | MIC [20] | MIC [28] | MIC [34] | MIC [40] | MIC [41]

CC[C@@H](C(=O)[C@@H](C)[C@@H](O)[C@H](C)[C@@H]1O[C@@H]([C@@H](CC)C(=O)N(CC)CC)CC[C@@H]1C)[C@H]1O[C@]2(C=C[C@@H](O)[C@]3(CC[C@@](C)([C@H]4CC[C@](O)(CC)[C@H](C)O4)O3)O2)[C@H](C)C[C@@H]1C
4 µg/mL: MIC [4] | MIC [7] | MIC [9] | MIC [15] | MIC [19] | MIC [20] | MIC [25] | MIC [27] | MIC [29] | MIC [41]
1 µg/mL: MIC [24]
128 µg/mL: MBC [8] | MBC [10] | MBC [21] | MBC [37]
8 µg/mL: MIC [28] | MIC [34]
> 256 µg/mL: MIC [5] | MBC [18] | MBC [22] | MIC [26] | MBC [32] | MBC [33] | MIC [35] | MIC [39] | MBC [43]
256 µg/mL: MBC [2] | MBC [3] | MBC [6] | MBC [11] | MBC [12] | MBC [14] | MBC [23] | MBC [31] | MBC [42]
26 mm: diameter of the inhibition zone (DIZ) [30] | diameter of the inhibition zone (DIZ) [36]
64 µg/mL: MBC [1] | MBC [13] | MBC [16] | MBC [17] | MBC [38]
2 µg/mL: MIC [40]

CC[C@@H](C(=O)[C@@H](C)[C@@H](O)[C@H](C)[C@@H]1O[C@@H]([C@@H](CC)C(=O)N(CCOC)CCOC)CC[C@@H]1C)[C@H]1O[C@]2(C=C[C@@H](O)[C@]3(CC[C@@](C)([C@H]4CC[C@](O)(CC)[C@H](C)O4)O3)O2)[C@H](C)C[C@@H]1C
> 256 µg/mL: MBC [1] | MBC [2] | MBC [3] | MIC [5] | MBC [6] | MBC [8] | MBC [10] | MBC [11] | MBC [12] | MBC [13] | MBC [14] | MBC [16] | MBC [17] | MBC [18] | MBC [21] | MBC [22] | MBC [23] | MIC [26] | MBC [31] | MBC [32] | MBC [33] | MIC [35] | MBC [37] | MBC [38] | MIC [39] | MBC [42] | MBC [43]
14 mm: diameter of the inhibition zone (DIZ) [36]
256 µg/mL: MIC [25] | MIC [29]
64 µg/mL: MIC [7] | MIC [9] | MIC [20]
13 mm: diameter of the inhibition zone (DIZ) [30]
512 µg/mL: MIC [24]
128 µg/mL: MIC [4] | MIC [15] | MIC [19] | MIC [27] | MIC [28] | MIC [34] | MIC [40] | MIC [41]
